The source of these data is ChEMBL document CHEMBL1255179, “Fatty acid synthase inhibitors of phenolic constituents isolated from Garcinia mangostana” (Bioorg Med Chem Lett, 2010).

The structures appear in SMILES notation. pIC50: −log10 of the molar value.

The target in one experiment is Fatty acid synthase (Gallus gallus) (UniProt P12276). In words: Inhibition of FAS at 1000 uM.
Chain of Fatty acid synthase (Gallus gallus) (P12276 whole entry, looked up): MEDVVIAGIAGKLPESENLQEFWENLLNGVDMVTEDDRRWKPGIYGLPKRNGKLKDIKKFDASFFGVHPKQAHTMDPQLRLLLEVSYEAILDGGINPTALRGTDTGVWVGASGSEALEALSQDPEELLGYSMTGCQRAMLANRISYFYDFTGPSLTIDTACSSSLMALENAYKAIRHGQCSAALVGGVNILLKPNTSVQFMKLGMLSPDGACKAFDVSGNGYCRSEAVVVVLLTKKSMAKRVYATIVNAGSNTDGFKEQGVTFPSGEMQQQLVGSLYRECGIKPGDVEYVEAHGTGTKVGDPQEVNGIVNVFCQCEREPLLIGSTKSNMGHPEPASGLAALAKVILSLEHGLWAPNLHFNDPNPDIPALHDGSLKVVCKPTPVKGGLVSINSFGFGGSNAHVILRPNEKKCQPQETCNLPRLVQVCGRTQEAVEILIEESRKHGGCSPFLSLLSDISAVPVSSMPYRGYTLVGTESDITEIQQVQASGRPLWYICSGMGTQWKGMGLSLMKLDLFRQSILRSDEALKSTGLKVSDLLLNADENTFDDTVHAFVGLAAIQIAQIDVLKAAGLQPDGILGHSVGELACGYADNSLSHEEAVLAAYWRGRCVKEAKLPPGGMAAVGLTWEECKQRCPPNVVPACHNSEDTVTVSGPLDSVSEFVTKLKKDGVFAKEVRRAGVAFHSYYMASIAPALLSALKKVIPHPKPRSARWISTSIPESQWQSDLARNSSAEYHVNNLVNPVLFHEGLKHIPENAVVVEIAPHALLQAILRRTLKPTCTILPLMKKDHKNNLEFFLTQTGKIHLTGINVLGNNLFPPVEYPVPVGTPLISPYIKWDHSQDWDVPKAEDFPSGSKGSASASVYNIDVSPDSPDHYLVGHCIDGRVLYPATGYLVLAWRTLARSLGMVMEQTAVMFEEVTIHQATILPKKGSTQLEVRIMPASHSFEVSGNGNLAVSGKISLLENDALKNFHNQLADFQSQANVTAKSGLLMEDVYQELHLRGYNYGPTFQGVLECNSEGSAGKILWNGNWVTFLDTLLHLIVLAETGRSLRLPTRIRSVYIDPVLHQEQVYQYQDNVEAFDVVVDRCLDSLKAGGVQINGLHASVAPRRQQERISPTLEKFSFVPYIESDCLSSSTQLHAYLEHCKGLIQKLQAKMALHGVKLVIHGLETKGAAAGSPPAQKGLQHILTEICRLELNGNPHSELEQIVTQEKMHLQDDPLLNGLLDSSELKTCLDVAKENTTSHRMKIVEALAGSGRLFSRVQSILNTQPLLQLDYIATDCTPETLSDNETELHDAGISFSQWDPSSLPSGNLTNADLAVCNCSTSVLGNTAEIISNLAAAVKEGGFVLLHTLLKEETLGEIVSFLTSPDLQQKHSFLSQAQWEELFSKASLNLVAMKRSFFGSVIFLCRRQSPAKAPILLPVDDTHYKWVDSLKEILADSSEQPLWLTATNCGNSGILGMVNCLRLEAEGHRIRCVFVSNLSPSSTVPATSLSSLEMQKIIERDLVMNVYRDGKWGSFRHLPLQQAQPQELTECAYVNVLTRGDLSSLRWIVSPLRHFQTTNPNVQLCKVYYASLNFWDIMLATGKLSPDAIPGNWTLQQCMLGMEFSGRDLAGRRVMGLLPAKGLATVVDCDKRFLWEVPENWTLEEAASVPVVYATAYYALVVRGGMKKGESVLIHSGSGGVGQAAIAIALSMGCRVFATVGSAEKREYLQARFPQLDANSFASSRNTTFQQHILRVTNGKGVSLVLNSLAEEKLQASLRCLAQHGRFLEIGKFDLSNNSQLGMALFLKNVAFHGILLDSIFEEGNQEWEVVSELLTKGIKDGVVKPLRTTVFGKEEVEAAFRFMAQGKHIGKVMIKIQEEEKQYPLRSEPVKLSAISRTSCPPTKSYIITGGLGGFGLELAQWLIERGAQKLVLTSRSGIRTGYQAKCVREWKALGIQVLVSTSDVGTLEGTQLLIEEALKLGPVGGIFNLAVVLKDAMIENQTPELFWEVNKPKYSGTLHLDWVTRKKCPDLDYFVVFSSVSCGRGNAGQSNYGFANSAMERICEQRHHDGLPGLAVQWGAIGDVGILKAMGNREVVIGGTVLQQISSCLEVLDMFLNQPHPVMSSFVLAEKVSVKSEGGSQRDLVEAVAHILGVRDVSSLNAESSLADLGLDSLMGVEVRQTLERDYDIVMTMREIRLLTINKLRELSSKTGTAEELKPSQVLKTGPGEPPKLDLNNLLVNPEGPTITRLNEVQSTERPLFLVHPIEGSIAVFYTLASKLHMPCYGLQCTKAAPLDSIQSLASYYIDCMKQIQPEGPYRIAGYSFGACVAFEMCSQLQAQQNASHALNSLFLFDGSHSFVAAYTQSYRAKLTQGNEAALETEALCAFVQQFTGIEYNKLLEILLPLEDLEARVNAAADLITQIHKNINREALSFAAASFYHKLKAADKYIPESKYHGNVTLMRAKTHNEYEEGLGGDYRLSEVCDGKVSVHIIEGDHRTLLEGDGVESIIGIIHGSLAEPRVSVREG
As a reminder, the pIC50 is the IC50 on a negative log10 scale, so that one unit is a factor of ten. A lower pIC50 goes with a large IC50. In the case of `Oc1cc(O)c2c(c1)O[C@@H](c1ccc(O)c(O)c1)[C@@H](O)C2` [(+)-EPICATECHIN], the pIC50 is less than 3.00.

The next experiment shares this target. In words: Inhibition of FAS.
`COc1c(O)cc2oc3cc(O)c(CC=C(C)C)c(O)c3c(=O)c2c1CC=C(C)C` [MANGOSTIN]: the pIC50 was 5.26.
The same measure, in the same setting: as for `CC(C)=CCc1c(O)cc2oc3cc(O)c(O)c(CC=C(C)C)c3c(=O)c2c1O`, the figure is 5.91; as for `C[C@@H]1O[C@@H](O[C@@H]2C(=O)c3c(O)cc(O)cc3O[C@H]2c2cc(O)cc(O)c2)[C@H](O)[C@H](O)[C@H]1O` [NEOSMITILBIN], 4.31; as for `COc1cc(CCCO)cc2cc(-c3ccc4c(c3)OCO4)oc12` [EGONOL], 4.04.
Still for that read-out and setting: the value for `O=c1c2cc(O)c(O)cc2oc2cc(O)cc(O)c12` was 4.75; that for `O=C(O[C@@H]1Cc2c(O)cc(O)cc2O[C@@H]1c1cc(O)c(O)c(O)c1)c1cc(O)c(O)c(O)c1` [EPIGALOCATECHIN GALLATE] was 4.28; that for `COc1c(O)cc2oc3cc4c(c(O)c3c(=O)c2c1CC=C(C)C)C=CC(C)(C)O4` [MANGOSTANIN] was 4.39.
Same read-out and setting: the value for `O=C(c1cccc(O)c1)c1cc(O)c(O)c(O)c1` was 4.83; that for `CC(C)=CCc1c(O)cc2oc3c(CC=C(C)C)c(O)c(O)c(CC=C(C)C)c3c(=O)c2c1O` [GARCINONE E] was 5.48.
`COc1cc2oc3cc(O)c(OC)c(CC=C(C)C)c3c(=O)c2c(O)c1CC=C(C)C`: the pIC50 is 4.61.
Still for that read-out and setting: as for `O=c1c2cc(O)ccc2oc2cc(O)cc(O)c12`, the figure is 4.39.
`O=C(c1cc(O)cc(O)c1)c1c(O)cc(O)cc1O` gave a pIC50 of 5.07.
